Data from ChEMBL document CHEMBL3132833, “3,4,2-Trimethoxy-trans-stilbene a potent CYP1B1 inhibitor” (Medchemcomm, 2014).
≈ marks a conversion by molar mass, not a printed value.

Tests used:
[1] = test system: Col2; assay: Cytotoxicity against human Col2 cells; type: functional, cell-based
[2] = species on record: Homo sapiens; assay: Selectivity ratio of IC50 for human recombinant CYP1A1 to IC50 for human recombinant CYP1B1
[3] = species on record: Homo sapiens; assay: Selectivity ratio of IC50 for human recombinant CYP1A2 to IC50 for human recombinant CYP1B1
[4] = target: T1, Cytochrome P450 1B1 (Homo sapiens, UniProt Q16678); assay: Inhibition of human recombinant CYP1B1 after 15 mins by 7-ethoxyresorufin-O-deethylation-based spectrofluorimetry
T1 sequence (Q16678 whole entry): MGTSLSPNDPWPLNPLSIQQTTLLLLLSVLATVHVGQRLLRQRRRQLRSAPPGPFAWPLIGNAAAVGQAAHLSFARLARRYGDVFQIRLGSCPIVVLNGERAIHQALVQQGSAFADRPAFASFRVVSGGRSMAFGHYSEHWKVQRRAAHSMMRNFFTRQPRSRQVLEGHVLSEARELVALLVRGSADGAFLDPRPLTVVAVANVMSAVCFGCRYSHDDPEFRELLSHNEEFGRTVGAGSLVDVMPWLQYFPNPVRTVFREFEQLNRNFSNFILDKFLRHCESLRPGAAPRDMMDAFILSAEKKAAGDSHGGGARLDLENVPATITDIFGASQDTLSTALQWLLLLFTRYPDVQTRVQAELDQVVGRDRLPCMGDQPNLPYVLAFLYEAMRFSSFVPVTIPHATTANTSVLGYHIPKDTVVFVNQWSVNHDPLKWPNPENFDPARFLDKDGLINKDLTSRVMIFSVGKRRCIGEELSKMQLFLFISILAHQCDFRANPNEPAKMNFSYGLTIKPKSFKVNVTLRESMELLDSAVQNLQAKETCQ

[5] = target: T2, Cytochrome P450 1A2 (Homo sapiens, UniProt P05177); assay: Inhibition of human recombinant CYP1A2 after 15 mins by 7-ethoxyresorufin-O-deethylation-based spectrofluorimetry
T2 sequence (P05177 whole entry): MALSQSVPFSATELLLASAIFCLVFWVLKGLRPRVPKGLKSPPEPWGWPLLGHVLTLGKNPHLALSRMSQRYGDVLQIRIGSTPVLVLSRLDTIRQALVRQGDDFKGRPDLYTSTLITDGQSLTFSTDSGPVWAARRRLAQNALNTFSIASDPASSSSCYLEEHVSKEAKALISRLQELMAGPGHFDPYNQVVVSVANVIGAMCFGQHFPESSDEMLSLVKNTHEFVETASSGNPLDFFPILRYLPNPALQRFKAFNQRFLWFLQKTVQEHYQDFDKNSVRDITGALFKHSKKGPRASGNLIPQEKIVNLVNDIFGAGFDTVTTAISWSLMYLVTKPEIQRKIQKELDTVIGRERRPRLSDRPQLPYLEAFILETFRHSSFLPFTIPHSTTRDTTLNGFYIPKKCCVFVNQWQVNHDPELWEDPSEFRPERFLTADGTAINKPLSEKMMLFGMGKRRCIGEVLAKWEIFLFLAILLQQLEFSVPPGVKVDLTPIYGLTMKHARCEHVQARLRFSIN

[6] = target: T3, Cytochrome P450 1A1 (Homo sapiens, UniProt P04798); assay: Inhibition of human recombinant CYP1A1 after 15 mins by 7-ethoxyresorufin-O-deethylation-based spectrofluorimetry
T3 sequence (P04798 whole entry): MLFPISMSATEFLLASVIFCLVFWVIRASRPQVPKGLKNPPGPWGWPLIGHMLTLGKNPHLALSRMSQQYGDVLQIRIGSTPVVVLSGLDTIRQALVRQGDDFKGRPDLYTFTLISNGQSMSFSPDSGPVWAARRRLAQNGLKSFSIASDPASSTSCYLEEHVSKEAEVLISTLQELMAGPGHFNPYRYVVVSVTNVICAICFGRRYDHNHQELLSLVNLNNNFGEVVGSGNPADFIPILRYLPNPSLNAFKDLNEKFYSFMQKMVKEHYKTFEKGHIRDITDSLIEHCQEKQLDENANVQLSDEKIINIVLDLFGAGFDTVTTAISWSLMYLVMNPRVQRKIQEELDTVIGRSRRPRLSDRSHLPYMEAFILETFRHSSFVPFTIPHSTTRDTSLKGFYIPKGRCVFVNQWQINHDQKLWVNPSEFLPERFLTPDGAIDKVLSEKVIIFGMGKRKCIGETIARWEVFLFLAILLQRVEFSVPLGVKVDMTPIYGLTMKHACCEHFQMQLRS

Row | Compound | Ratio IC50 [2] | Ratio IC50 [3] | IC50 [4] [nM] | IC50 [5] [µM] | IC50 [6] [nM] | IC50 [1] [µg/mL]
1 | COc1cc(/C=C/c2ccc(OC)cc2OC)cc(OC)c1 |  |  |  |  |  | 0.8 (≈ 2.66 µM)
2 | COc1ccc(/C=C/c2ccc(OC)c(OC)c2OC)cc1OC | 1.2 | > 24 | 4170 | > 100 | 5180 | 
3 | COc1cc(O)cc(/C=C/c2ccc(O)cc2)c1 |  |  | 2100 |  |  | 
4 | COc1ccc(/C=C/c2cc(O)cc(O)c2)cc1 [RESVERATROL 4'-METHYL ETHER] |  |  | 800 |  |  | 
5 | COc1cc(/C=C/c2ccc(O)cc2)cc(OC)c1 [PTEROSTILBENE] |  |  | 1400 |  |  | 
6 | COc1cc(OC)c(OC)cc1/C=C/c1ccc(OC)c(OC)c1 | 0.4 | > 22.5 | 4440 | > 100 | 1780 | 

More lines, main results first:

Row | Ratio IC50 [2] | Ratio IC50 [3] | IC50 [4] [nM] | IC50 [5] [µM] | IC50 [6] [nM] | Compound | IC50 [1] [µg/mL]
7 | 1.2 | 43.3 | 370 | 16 | 450 | COc1ccc(/C=C/c2cccc(OC)c2OC)cc1OC | 
8 | 0.9 | > 333 | 300 | > 100 | 270 | COc1cc(OC)c(/C=C/c2ccc(OC)c(OC)c2)c(OC)c1 | 
9 | 0.8 | > 160 | 620 | > 100 | 500 | COc1ccc(OC)c(/C=C/c2ccc(OC)c(OC)c2)c1 | 
10 | 90 | 830 | 4 | 3.32 | 360 | COc1ccccc1/C=C/c1ccc(OC)c(OC)c1 | 
11 | 2.4 | > 480 | 210 | > 100 | 510 | COc1ccc(/C=C/c2ccc(OC)c(OC)c2)c(OC)c1 | 
12 | 0.74 | 7.5 | 310 | 2.31 | 230 | COc1ccc(/C=C/c2c(OC)cccc2OC)cc1OC | 
13 | 1.5 | 20.1 | 300 | 6.04 | 440 | COc1ccc(/C=C/c2ccccc2)cc1OC | 
